Results on 30 compounds are retold here after patent US5840721A, “Imidazole derivatives as MDR modulators” (Ontogen Corporation, priority 1997, dated 1998).

This experiment has as its system CEM/VLB1000 cell line. Briefly: Cytotoxicity potentiation: enhancement of vinblastine cytotoxicity in MDR cell line (alamar blue). The note with it: Homo sapiens, midpoint of minimum and maximum cytotoxicity induced by 3-5 μg/mL vinblastine and compound, 48 hours incubation, alamar blue 24 hours, read-out: Cytotocicity Potentiation (EC50). It counts as cell-based, human. As to the method:
Multidrug-resistant cell lines are easily obtainable for in vitro determination of drug sensitization by compounds of the present invention. In vitro potentiation of antineoplastic cytotoxicity by the imidazole derivatives of the present invention was measured in both CEM/VLB1000 and SK/VLB1000 cell lines. The multidrug resistant cell lines were obtained from Dr. Victor Ling, Ontario Cancer Institute, Toronto, Canada. The CEM/VLB 1000 cell line was maintained as a suspension in minimum essential medium supplemented with 10% fetal bovine serum in a humidied atmosphere of 95% air and 5% CO2 while the SK/VLB 1000 cell line was maintained as adherent cells using the identical medium conditions as the CEM cells. The CEM/VLB 1000 cells were seeded at a density of 5×10^4 cells/well in a 96 well microtiter plate while the SK/VLB 1000 cell line was seeded at a density of 2,500 cells/well after trypsinization.
For orientation: The colour change of resazurin is a common sign of viable cells or microbes.
Turning to `CCOC/C=C/c1ccc(-c2nc(-c3ccc(N4CCOCC4)cc3)c(-c3ccc(N4CCOCC4)cc3)[nH]2)cc1` [Example 92, 2-[4-(3-ethoxy-trans-1-propen-1-yl)phenyl]-4,5-bis (4-N-morpholinophenyl) imidazole], the 50% effective concentration (EC50) (as a rule, the concentration giving half of the maximal effect) is 0.22 µM.
Under `CCOC/C=C/c1ccc(-c2nc(-c3ccc(N(C)C)cc3)c(-c3ccc(N4CCOCC4)cc3)[nH]2)cc1` [Example 93, 2-[4-(3-ethoxy-trans-1-propen-1-yl)phenyl]-4-(4-N-dimethylaminophenyl)-5-(4-N-morpholinophenyl) imidazole] stands 0.15 µM.
Under `CCOC/C=C/c1ccc(-c2nc(-c3ccc(NC)cc3)c(-c3ccc(N4CCOCC4)cc3)[nH]2)cc1` [Example 94, 2-[4-(3-ethoxy-trans-1-propen-1-yl)phenyl]-4-(4-N-methylaminophenyl) -5(4-N-morpholinophenyl) imidazole] stands 0.25 µM; under `CCOC/C=C/c1ccc(-c2nc(-c3ccc(NC(C)C)cc3)c(-c3ccc(NC)cc3)[nH]2)cc1` [Example 95, 2-[4-(3-ethoxy-trans-1-propen-1-yl)phenyl]-4-(4-N-methylaminophenyl)-5-(4-N-isopropylaminophenyl) imidazole], 0.05 µM.
Next, `CN(C)c1ccc(-c2nc(-c3ccc(/C=C/S(C)(=O)=O)cc3)[nH]c2-c2ccc(N(C)C)cc2)cc1` [Example 96, 2-[4-trans-(2-methanesulfonyl-ethenyl)-phenyl]-4,5-bis (4-N,N-dimethylaminophenyl) imidazole]: 0.73 µM.
For the compound `CN(C)c1ccc(-c2nc(-c3ccc(N4CCOCC4)cc3)[nH]c2-c2ccc(N(C)C)cc2)cc1` [Example 97, 2-(4-N-morpholinophenyl)-4,5-bis (4-N,N-dimnethylaminophenyl) imidazole], the half-maximal effective concentration (EC50) turned out to be 0.19 µM.
Under `CCOC(=O)c1cc(-c2ccc(-c3nc(-c4ccc(N(C)C)cc4)c(-c4ccc(N(C)C)cc4)[nH]3)cc2)no1` [Example 98, 2-[4-(5-ethylcarboxyisoxazol-3-yl)-phenyl]-4,5-bis (4-N,N-dimethylamainophenyl) imidazole] stands 0.6 µM.
Next, `CCN(CC)Cc1ccc(-c2[nH]c(-c3ccc(/C=C/C(=O)OC)cc3)nc2-c2ccc(C)cc2)cc1` [Example 99, 2-[4-trans-(2-methoxycarbonyl-ethenyl)phenyl]-4-(p-tolyl)-5-(4-N,N-diethylaminomethylphenyl) imidazole]: 0.29 µM; `CCN(CC)Cc1ccc(-c2nc(-c3ccc(/C=C/C(=O)OC)cc3)[nH]c2-c2ccc(CN(CC)CC)cc2)cc1` [Example 100, 2-[4-trans-(2-methoxycarbonyl-ethenyl)phenyl]-4,5-bis (4-N,N-diethylaminomethylphenyl) imidazole]: 3.4 µM.
Under `CCOC/C=C/c1ccc(-c2nc(-c3ccc(OC)cc3)c(-c3ccc(OC)cc3)[nH]2)cc1` [Example 102, 2-[4-(3-ethoxy-trans-1-propen-1-yl)phenyl]-4,5-bis (4-dimethoxyphenyl) imidazole] stands 0.35 µM; under `CCOC/C=C/c1ccc(-c2nc(-c3ccc(OCC)cc3)c(-c3ccc(OCC)cc3)[nH]2)cc1` [Example 103, 2-[4-(3-ethoxy-trans-1-propen-1-yl)phenyl]-4,5-bis (4-diethoxyphenyl) imidazole], 0.24 µM.
Regarding `CCOC/C=C/c1ccc(-c2nc(-c3ccc(OC(C)C)cc3)c(-c3ccc(OC(C)C)cc3)[nH]2)cc1` [Example 104, 2-[4-(3-ethoxy-trans-1-propen-1-yl)phenyl]-4,5-bis (4diisopropyloxyphenyl) imidazole], the EC50 is 0.25 µM.
Under `CCOC/C=C/c1ccc(-c2nc(-c3ccc(OC)cc3)c(-c3ccc(OC)cc3)n2CCCn2ccnc2)cc1` [Example 105, 1-(3-imidazole-1-yl-propyl)-2-[4-(3-ethoxy-trans-1-propen-1-yl)phenyl]-4,5bis (4-dimethoxyphenyl) imidazole] stands 0.65 µM; under `CCOC/C=C/c1ccc(-c2nc(-c3ccc(OCC)cc3)c(-c3ccc(OCC)cc3)n2CCCn2ccnc2)cc1` [Example 106, 1-(3-imidazole-1-yl-propyl)-2-[4-(3-ethoxy-trans-1-propen-1-yl)phenyl]-4,5bis (4-diethoxyphenyl) imidazole], 0.38 µM; under `CCOC/C=C/c1ccc(-c2nc(-c3ccc(OC(C)C)cc3)c(-c3ccc(OC(C)C)cc3)n2CCCn2ccnc2)cc1` [Example 107, 1-(3-imidazole-1-yl-propyl)-2-[4-(3-ethoxy-trans-1-propen-1-yl)phenyl]-4,5bis (4-diisopropyloxyphenyl) imidazole], 0.49 µM.
In the case of `CCOC/C=C/c1ccc(-c2nc(-c3ccc(N(CC)CC)cc3)c[nH]2)cc1` [Example 108, 2-[4-(3-ethoxy-trans-1-propen-1-yl)phenyl]-4-(4-N,N-diethylphenyl) imidazole], the EC50 is 0.3 µM.
Next, `CCOC/C=C/c1ccc(-c2nc(-c3ccc(OC)cc3)c[nH]2)cc1` [Example 109, 2-[4-(3-ethoxy-trans-1-propen-1-yl)phenyl]-4-(4-methoxyphenyl) imidazole]: 1.85 µM; `CN(C)c1ccc(-c2nc(-c3ccc(/C=C/CO)cc3)n(C)c2-c2ccc(N(C)C)cc2)cc1` [Example 114, 1-methyl-2-[4-(3-hydroxy-trans-1-propen-1-yl)phenyl]-4,5-bis (4-N,N-dimethylaminophenyl) imidazole]: 0.63 µM.
Turning to `CN(C)c1ccc(-c2nc(-c3ccc(/C=C/COC(=O)C(C)(C)C)cc3)[nH]c2-c2ccc(N(C)C)cc2)cc1` [Example 115, 2-[4-(3-pivalate-trans-1-propen-1-yl)phenyl]-4,5-bis (4-N,N-dimethylaminophenyl) imidazole], the EC50 is 0.48 µM.
For the compound `CC(=O)/C=C/c1ccc(-c2nc(-c3ccc(N(C)C)cc3)c(-c3ccc(N(C)C)cc3)[nH]2)cc1` [Example 116, 2-[4-(3-methylcarbonyl-trans-1-propen-1-yl)phenyl]-4,5-bis (4-N,N-dimethylaminophenyl) imidazole], the 50% effective concentration (EC50) stood at 0.23 µM.
Under `CCOC/C=C/c1ccc(-c2nc3cc(OC)ccc3[nH]2)cc1` [Example 118] stands 1 µM; under `CCOC/C=C/c1ccc(-c2nc(-c3ccc(NC(C)C)cc3)c(-c3ccc(NC(C)C)cc3)[nH]2)cc1` [Example 119, 2-[4-(3-ethoxy-trans-1-propen-1-yl)phenyl]-4,5-bis-(4-N-isopropylaminophenyl) imidazole], 0.067 µM.
Next, `CCNc1ccc(-c2[nH]c(-c3ccc(/C=C/COCC)cc3)nc2-c2ccc(NC(C)C)cc2)cc1` [Example 120, 2-[4-(3-ethoxy-trans-1-propen-1-yl)phenyl]-4-(4-N-ethylaminophenyl)-5(4-N-isopropylaminophenyl) imidazole]: 0.053 µM; `CCOC/C=C/c1ccc(-c2nc(-c3ccc(NC(C)C)cc3)c(-c3ccc(F)cc3)[nH]2)cc1` [Example 121, 2-[4-(3-ethoxy-trans-1-propen-1-yl)phenyl]-4-(4-fluorophenyl)-5-(4-N-isopropylaminophenyl) imidazole]: 0.12 µM.
Next, `CCCN(CCC)c1ccc(-c2c[nH]c(-c3ccc(/C=C/COCC)cc3)n2)cc1` [Example 122, 2-[4-(3-ethoxy-trans-1-propen-1-yl)phenyl]-4-(4-N,N-dipropylphenyl) imidazole]: 0.28 µM.
`CCOC/C=C/c1ccc(-c2nc(-c3ccc(NC(C)C)cc3)c[nH]2)cc1` [Example 123, 2-[4-(3-ethoxy-trans-1-propen-1-yl)phenyl]-4-(4-N-isopropylphenyl) imidazole]: the 50% effective concentration (EC50) amounted to 0.34 µM.
Next, `CCOC/C=C/c1ccc(-c2nc(-c3ccc(NCC(C)C)cc3)c[nH]2)cc1` [Example 124, 2-[4-(3-ethoxy-trans-1-propen-1-yl)phenyl]-4-(4-N-isobutylphenyl) imidazole]: 0.25 µM; `CCOC/C=C/c1ccc(-c2nc(-c3ccc(N4CCOCC4)cc3)c[nH]2)cc1` [Example 125, 2-[4-(3-ethoxy-trans-1-propen-1-yl)phenyl]-4-(4-N-morpholinophenyl) imidazole]: 0.37 µM; `CCOC/C=C/c1ccc(-c2nc(-c3ccc(N4CCN(CC)CC4)cc3)c[nH]2)cc1` [Example 126, 2-[4-(3-ethoxy-trans-1-propen-1-yl)phenyl]-4-[4-N-(N'-ethyl)piperizanophenyl) imidazole]: 0.71 µM.
Under `CCOC/C=C/c1ccc(-c2nc(-c3ccc(N4CCOCC4)cc3)c(C)[nH]2)cc1` [Example 127, 2-[4-(3-ethoxy-trans-1-propen-1-yl)phenyl]-4-(4-N-morpholinophenyl)-5methyl-imidazole] stands 0.33 µM.
